Reference: patent publication US7932213B2, “Small molecule printing” (President and Fellows of Harvard College, priority 1999, dated 2011)

Legend:
[1] = Precipitation of sample in SPR binding buffer (4% DMF/PBST); format: physicochemical; conditions: at 125 μM
Protocol: After the prioritization step, compounds 5, 6 and 7 were resynthesized, purified and subjected to KD determination. Samples were injected over a range of concentrations (e.g. 0.1-125 μM). The compound was prepared as a 10 mM stock solution in DMF. Serial dilutions of this stock were made and then added to the heated PBST (˜70° C., 1 min). In this analysis, a 200 μL final volume was prepared by addition of 8 μL of small molecule DMF solution into 192 μL of a heated PBST. The final concentration ranged between 0.015 μM and 125 μM. 5 and 6 precipitated at 125 μM in 4% DMF/PBST. Samples were injected in the alternation with blanks. “Flow cell 2 with 1 as a reference” was selected and each sample was analyzed in triplicate. For each experiment, a calibration for bulk differences between flow cells due to the high refractive index of DMF was performed by injecting blank samples containing a range of DMF concentrations (1, 2, 3, 3.5, 4, 4.5, 5%) in PBST under conditions otherwise identical to those used for samples of compounds 5, 6 and 7.

calmodulin = calmodulin (Homo sapiens, UniProt P0DP23); test: Surface plasmon resonance (BIAcore) binding to immobilized calmodulin; conditions: SPR, steady state affinity analysis; resynthesized, purified compound; PBST containing 4% DMF
Protocol: Cy5 detection was chosen to avoid conflict with compound autofluorescence in the Cy3 channel. Positive hits from the microarray were retested for their ability to bind to the immobilized protein using surface plasmon resonance (SPR) spectroscopy (BIAcore). This process enables a rapid initial prioritization of positives prior to resynthesis, The initial secondary SPR screening was performed using compound (2 μL of a 1 mM DMF stock) directly from the original stock solutions used for microarray production. […] For this set, compound 5, 6, and 7 were resynthesized, purified, and their KDs with calmodulin determined by SPR using steady state affinity analysis.
Tetracycle 7: ^1H NMR (500 MHz, CDCl3) δ 6.95 (d, J=8.5 Hz, 2H), 6.87 (m, 4H), 6.71 (d, J=8.0 Hz, 2H), 6.55 (q, J=1.5 Hz, 1H), 6.04 (m, 1H), 4.93 (s, 1H), 4.68 (s, 1H), 3.84 (t, J=5.0 Hz, 4H), 3.34 (dd, J=17.0, 2.5 Hz, 1H), 3.28 (m, 2H), 3.16 (t, J=5.0 Hz, 4H), 3.02 (m, 1H), 2.94 (dd, J=15.0, 7.0 Hz, 1H), 2.54 (dd, J=17.5, 8.5 Hz, 1H), 2.36 (ddd J=15.5, 6.5, 3.5 Hz, 1H), 2.05 (d, J=1.5 Hz, 3H); ^13C NMR (125 MHz, CDCl3) δ 186.4, 186.1, 178.8, 177.1, 154.4, 151.2, 146.0, 143.4, 140.8, 139.5, 132.6, 132.5, 128.2, 127.1, 123.1, 122.7, 115.6, 115.5, 66.7, 48.7, 43.9, 42.6, 39.1, 32.4, 24.5, 24.1, 16.1; FT-IR (thin film) 3411, 2961, 2907, 2852, 1699, 1690, 1649, 1611, 1513, 1441, 1381, 1261, 1234, 1173, 1113, 922, 818, 730 cm^−1; HRMS (TOF ES) calcd for C33H31N2O6, 551.2182 m/z (M+H)^+; observed 551.2186 (0.8 ppm error). BIAcore Experiments Immobilization. In all experiments, calmodulin (CaM) was immobilized on a carboxymethylated dextran-coated sensor chip (CM5, Biacore AB, Uppsala, Sweden) at 25° C. For protein immobilization, ‘specific flow rate’ was selected and the protein of interest was immobilized in flow cells 2 and 4. On Biacore 3000, the sensor chip was activated (7 min in flow cells 2 and 4) by addition of 0.2 M N-ethyl-N'-(3-dimethylaminopropyl) carbodiimide hydrochloride (EDC) and 0.05 M N-hydroxysuccinimide (NHS) at 20 μL/min. […]

| Compound | precipitation in 4% DMF/PBST [1] | Kd (calmodulin) |
| --- | --- | --- |
| CN(C)c1ccc(/N=N/c2ccc(N3C(=O)[C@H]4[C@H](CC=C5[C@H]4C[C@H]4C(=O)N(c6ccc(F)c(Cl)c6)C(=O)[C@@]4(C)[C@H]5c4cc(Cl)ccc4O)C3=O)cc2)cc1 [Compound 5] | precipitated | 121 ± 30 nM |
| Cc1c(-c2cc(N3C(=O)[C@@H]4C[C@@H]5C(=CC[C@@H]6C(=O)N(c7ccc(/N=N/c8ccc(N(C)C)cc8)cc7)C(=O)[C@@H]65)[C@H](c5cc(Cl)ccc5O)[C@]4(C)C3=O)n(C)n2)sc2ccc(Cl)cc12 [Compound 6] | precipitated | 1060 ± 90 nM |
| CC1=CC(=O)C2=C(C[C@@H]3C(=CC[C@@H]4C(=O)N(c5ccc(N6CCOCC6)cc5)C(=O)[C@@H]43)[C@@H]2c2ccc(O)cc2)C1=O [Compound 7] |  | 20700 ± 1000 nM |
